Consider two compounds from PMC3487895, “Artepillin C, a Major Ingredient of Brazilian Propolis, Induces a Pungent Taste by Activating TRPA1 Channels” (PLoS ONE, 2012).

The structures appear in SMILES notation.

Test [1] deals with T1, human transient receptor potential ankyrin 1 (hTRPA1) (Homo sapiens, UniProt O75762).
T1 construct: gene TRPA1; entire coding region (NM_007332.2)
Nature of the test: calcium influx (FLIPR Calcium […] plate reader and Fura-2 imaging) in hTRPA1-expressing Flp-In […] cells; blocked by HC-030031, absent in parental cells. It counts as cell-based.

Test [2] concerns the target T1, human transient receptor potential ankyrin 1 (hTRPA1). Nature of the test: calcium influx (FLIPR Calcium […] plate reader and Fura-2 imaging) in hTRPA1-expressing Flp-In […] cells; blocked by HC-030031. The test is classed as cell-based.

T1 sequence (O75762 whole entry): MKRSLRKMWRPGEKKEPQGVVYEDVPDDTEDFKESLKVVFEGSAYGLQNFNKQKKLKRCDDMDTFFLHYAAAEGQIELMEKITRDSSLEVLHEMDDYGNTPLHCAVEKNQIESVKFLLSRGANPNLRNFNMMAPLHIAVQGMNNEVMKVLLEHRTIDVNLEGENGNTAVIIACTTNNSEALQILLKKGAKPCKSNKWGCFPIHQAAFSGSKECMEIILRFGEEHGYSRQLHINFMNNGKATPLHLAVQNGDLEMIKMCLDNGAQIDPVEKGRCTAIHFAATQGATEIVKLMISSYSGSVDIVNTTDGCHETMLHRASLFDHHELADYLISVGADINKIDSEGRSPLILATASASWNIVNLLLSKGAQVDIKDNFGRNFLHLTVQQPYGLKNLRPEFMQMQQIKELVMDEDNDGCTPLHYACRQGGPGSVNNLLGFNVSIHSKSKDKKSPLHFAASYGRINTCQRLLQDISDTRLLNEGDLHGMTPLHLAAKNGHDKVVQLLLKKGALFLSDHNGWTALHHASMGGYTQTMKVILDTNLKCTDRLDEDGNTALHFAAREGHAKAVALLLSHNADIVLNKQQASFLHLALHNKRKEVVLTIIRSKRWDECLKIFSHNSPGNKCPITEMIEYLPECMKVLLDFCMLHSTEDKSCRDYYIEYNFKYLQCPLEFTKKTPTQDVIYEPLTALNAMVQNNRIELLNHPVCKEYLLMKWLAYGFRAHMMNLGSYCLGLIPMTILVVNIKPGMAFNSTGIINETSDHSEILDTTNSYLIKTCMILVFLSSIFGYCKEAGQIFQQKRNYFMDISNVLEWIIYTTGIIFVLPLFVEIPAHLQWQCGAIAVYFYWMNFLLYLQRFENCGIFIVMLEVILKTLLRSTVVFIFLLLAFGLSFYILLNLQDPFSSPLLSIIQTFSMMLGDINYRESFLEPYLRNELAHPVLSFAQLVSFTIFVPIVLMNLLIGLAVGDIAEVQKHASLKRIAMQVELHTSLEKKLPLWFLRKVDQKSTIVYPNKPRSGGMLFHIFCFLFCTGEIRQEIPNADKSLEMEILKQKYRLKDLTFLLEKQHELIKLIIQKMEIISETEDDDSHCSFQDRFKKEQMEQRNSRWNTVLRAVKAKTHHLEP

For the compound `CC(C)=CCc1cc(/C=C/C(=O)O)cc(CC=C(C)C)c1O` [artepillin C, 3,5-diprenyl-4-hydroxycinnamic acid], in test [1], the EC50 stood at 1.8 µM.
`CC(C)=CCc1cc(/C=C/C(=O)O)ccc1OC(=O)CCc1ccccc1` [baccharin, (E)-3-prenyl-4-(2,3-dihydrocinnamoyloxy) cinnamic acid]: in test [2], the 50% effective concentration (EC50) is 15.5 µM.

The term EC50 denotes the concentration needed to bring the measured effect to its halfway point.
